{"source": "patent US9012169B2", "about": "“Metabolic method to identify compounds having flavor or fragrance” (Givaudan S.A., priority 2004, dated 2015)", "key": {"hTRPM8": {"molecular_target": "hTRPM8 (Homo sapiens, UniProt Q7Z2W7)", "sequence (Q7Z2W7 whole entry)": "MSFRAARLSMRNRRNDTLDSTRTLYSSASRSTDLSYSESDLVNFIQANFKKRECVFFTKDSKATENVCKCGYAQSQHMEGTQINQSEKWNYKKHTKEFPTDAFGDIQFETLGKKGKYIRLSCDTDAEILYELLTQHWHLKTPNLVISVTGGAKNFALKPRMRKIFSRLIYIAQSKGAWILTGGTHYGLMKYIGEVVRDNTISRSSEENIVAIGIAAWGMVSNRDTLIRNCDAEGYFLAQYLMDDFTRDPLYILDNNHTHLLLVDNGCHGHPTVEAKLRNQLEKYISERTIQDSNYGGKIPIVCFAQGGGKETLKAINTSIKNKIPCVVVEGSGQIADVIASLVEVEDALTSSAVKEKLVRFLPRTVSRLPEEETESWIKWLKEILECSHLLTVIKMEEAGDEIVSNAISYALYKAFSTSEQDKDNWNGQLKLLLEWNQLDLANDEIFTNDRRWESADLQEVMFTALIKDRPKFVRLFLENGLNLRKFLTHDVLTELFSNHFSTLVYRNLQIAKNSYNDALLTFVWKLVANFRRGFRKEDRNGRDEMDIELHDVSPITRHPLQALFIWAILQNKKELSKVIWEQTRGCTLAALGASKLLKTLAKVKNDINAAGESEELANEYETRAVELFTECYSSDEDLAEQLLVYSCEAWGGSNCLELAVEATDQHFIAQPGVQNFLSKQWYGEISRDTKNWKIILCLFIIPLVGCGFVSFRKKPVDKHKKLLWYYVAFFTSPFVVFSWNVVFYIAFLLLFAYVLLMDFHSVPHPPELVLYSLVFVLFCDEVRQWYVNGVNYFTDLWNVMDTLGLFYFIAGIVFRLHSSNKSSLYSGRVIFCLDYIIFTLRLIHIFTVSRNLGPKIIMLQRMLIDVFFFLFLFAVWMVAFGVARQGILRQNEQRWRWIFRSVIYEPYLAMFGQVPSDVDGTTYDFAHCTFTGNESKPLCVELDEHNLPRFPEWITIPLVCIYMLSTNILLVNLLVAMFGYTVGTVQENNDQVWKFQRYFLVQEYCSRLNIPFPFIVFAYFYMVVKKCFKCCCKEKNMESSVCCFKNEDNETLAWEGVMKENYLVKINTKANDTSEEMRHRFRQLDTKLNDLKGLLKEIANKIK", "assay": "Receptor screen using hTRPM8-expressing CHO-K1/FRT cells, Fura-2 intracellular calcium", "settings": "for Receptor ligand character at hTRPM8: conclusion from the receptor screen after the metabolic reaction with CE; for Intracellular calcium levels in hTRPM8-expressing CHO-K1 cells: menthyl-lactate incubated with CE (menthol formed) versus control with substrate but without CE", "protocol": "The stable CHO-K1/FRT cell clones that express hTRPM8 are used in a receptor screen to identify ligands of said receptor. This is performed analogous to the method described by Peier et al. (Cell (2002) 108:705-715) for the mouse TRPM8 cDNA. Glass coverslips, 24-well and 96-well tissue culture plates are used for cell plating. Cells are loaded with the calcium-sensitive fluorescent dye Fura-2 acetoxymethyl ester (Fura-2AM). As a test compound, menthol or another known ligand is diluted in a suitable buffer compatible with the CHO-K1/FRT cells.\nMenthyl-lactate, a substrate of CE, is incubated with CE. Controls contain menthyl-lactate but not CE. The incubation is performed as described in Examples 7B, subject to the following modifications: after 30 min incubation time at 25° C., the samples are chilled on ice for 10 min and centrifuged. Supernatants are transferred to empty wells and diluted with 1 volume 2×HEPES (4 mM Ca^2+). The dilution is used as a test sample in a receptor screen as described in Example 8."}, "[1]": {"molecular_target": "T1, human recombinant carboxyl esterase (CE) (Homo sapiens, UniProt P23141)", "T1 construct": "In order to clone the full-length gene encoding CE; made in house; host or cells: Sf9 insect cells, baculovirus (pBlueBac4.5), used as microsomes", "T1 sequence (P23141 18-566 isoform P23141-3 limits assumed)": "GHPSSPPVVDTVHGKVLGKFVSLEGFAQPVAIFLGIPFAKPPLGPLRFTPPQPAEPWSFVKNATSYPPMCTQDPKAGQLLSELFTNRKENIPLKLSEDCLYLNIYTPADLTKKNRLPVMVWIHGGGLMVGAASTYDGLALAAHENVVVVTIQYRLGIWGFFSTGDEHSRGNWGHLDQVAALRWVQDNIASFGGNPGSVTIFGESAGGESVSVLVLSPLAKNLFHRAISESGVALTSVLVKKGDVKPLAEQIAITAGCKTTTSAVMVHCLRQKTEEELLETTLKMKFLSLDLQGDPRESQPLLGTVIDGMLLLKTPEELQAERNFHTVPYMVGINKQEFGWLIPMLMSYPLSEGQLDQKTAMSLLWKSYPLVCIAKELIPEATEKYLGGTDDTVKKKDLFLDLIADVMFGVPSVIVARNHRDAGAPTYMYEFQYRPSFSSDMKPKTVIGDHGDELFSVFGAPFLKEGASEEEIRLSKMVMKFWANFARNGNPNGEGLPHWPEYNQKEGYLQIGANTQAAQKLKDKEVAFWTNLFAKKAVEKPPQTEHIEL", "assay": "Incubation with human recombinant carboxyl esterase (CE) and standard substrate p-nitrophenylacetate, absorbance at 405 nm", "format": "biochemical", "settings": "0.1 mM p-nitrophenylacetate, test compound 0-1 mM, 25° C., pH 7.2", "protocol": "The incubation of a test compound (potential substrate or modulator of CE) and CE is performed in the presence of a standard substrate, for example p-nitrophenylacetate. The hydrolysis product of p-nitrophenylacetate is p-nitrophenol which can be detected by measuring the absorbance at 405 nm. […] The incubation mixture contains CE microsomes containing CE enzyme corresponding to 4 mU of CE in a total volume of 0.2 ml (1 U hydrolyzes 1.0 μmole of ethylbutyrate to butyrate and ethanol per min at pH 8.0, 25° C.), 0.1 mM p-nitrophenylacetate, and the test compound in 50 mM potassium phosphate buffer (pH 7.2). The test compound is employed at different concentrations, for example 0, 0.05, 0.1, 0.25, 0.5, 1 mM, to allow detection of a dose-dependent effect. Samples that contain no test compound serve as a negative control. The samples are incubated at 25° C. and the increase in absorbance at 405 nm is measured every 5 minutes for 30 minutes."}, "[2]": {"molecular_target": "T1, human recombinant carboxyl esterase (CE)", "assay": "Incubation with CE in the absence of the standard substrate, metabolites by GC and GC-MS", "format": "in vitro ADME", "method": "Incubation with CE is performed in the absence of the standard substrate using 10 mU of CE in a total volume of 0.5 ml with the substrate at 0.25 mM and 50 mM potassium phosphate as the assay buffer.\nGC and GC-MS analysis show the formation of an additional peak which is identified as menthol, which is a metabolite of menthyl-lactate."}, "[3]": {"molecular_target": "T2, human microsomal epoxide hydrolase (EH) (Homo sapiens, UniProt P07099)", "T2 construct": "purchased BD Bioscience, Gentest, US", "T2 sequence (P07099 1-455)": "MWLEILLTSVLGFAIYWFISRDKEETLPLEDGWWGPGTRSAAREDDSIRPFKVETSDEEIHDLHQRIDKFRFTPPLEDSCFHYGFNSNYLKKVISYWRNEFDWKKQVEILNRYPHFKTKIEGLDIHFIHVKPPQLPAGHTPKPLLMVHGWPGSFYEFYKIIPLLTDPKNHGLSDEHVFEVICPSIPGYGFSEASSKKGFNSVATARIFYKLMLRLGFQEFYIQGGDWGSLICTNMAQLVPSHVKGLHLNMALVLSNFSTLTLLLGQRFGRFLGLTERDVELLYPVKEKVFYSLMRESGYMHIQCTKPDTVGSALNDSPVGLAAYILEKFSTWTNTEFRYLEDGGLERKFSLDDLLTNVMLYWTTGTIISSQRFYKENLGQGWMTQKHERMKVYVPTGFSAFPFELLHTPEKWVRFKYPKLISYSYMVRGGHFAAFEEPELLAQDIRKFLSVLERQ", "assay": "Incubation of styrene oxide with human microsomal epoxide hydrolase (EH), metabolite by GC-MS", "format": "in vitro ADME", "settings": "0.5 mM styrene oxide, 0.2 mg/ml EH, pH 9, 30 min at 37° C."}, "human CYP2A13 [4]": {"molecular_target": "T3, human CYP2A13 (Homo sapiens, UniProt Q16696)", "T3 sequence (Q16696 1-494)": "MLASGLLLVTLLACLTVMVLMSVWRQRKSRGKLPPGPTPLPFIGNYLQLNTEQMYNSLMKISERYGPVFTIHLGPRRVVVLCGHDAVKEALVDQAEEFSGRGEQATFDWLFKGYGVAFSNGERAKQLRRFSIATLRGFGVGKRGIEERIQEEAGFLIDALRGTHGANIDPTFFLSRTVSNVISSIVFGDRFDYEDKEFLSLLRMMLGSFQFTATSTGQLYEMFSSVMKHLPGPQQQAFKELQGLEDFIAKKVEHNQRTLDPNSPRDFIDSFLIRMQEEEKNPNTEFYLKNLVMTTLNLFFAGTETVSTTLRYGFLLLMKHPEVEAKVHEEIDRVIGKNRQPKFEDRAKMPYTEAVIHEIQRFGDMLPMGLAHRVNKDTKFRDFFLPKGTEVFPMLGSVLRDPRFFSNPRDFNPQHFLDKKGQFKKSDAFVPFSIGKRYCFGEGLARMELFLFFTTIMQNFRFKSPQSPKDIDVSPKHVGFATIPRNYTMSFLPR", "assay": "Incubation of a test compound with human CYP2A13 and identification of metabolites by GC and GC-MS", "settings": "from decrease of umbelliferone and metabolite found by GC-MS", "protocol": "(§1) 100 pmoles human recombinant NADPH-P450 reductase contained in microsomes (BD Biosciences Gentest, USA) are incubated with 50 pmoles CYP2A13 microsomes for 15 minutes on ice. Freshly sonicated dilaurylphosphatidylcholine (DLPC, Fluka, Switzerland) is added from a stock solution (1 mg/ml in water) to give a final concentration of 0.025 mg/ml (0.5 ml final reaction volume) and the mixture is incubated on ice for 15 minutes. Potassium phosphate buffer (1 M, pH 7.4) and water are added to give a buffer concentration of 0.1M in a final volume of 0.5 ml. The test compound is prepared as a 50 mM stock solution in acetonitrile. […]\n(§2) Following the 60 min incubation, the sample is chilled on ice for 10 minutes and the enzymatic reaction is stopped by extraction with 0.3 ml of the organic solvent methyl-t-butyl-ether (MTBE) that allows separating the test compound and its metabolites from the aqueous phase which contains the enzymes. 1 microliter of the MTBE fraction is analysed by GC and GC-MS to identify metabolites which are present in the enzymatic reaction, but not in the control.\n(§3) For test compounds which show a decrease in umbelliferone-derived fluorescence, the incubation with the enzyme but without coumarin and analysis of metabolites is performed by GC and GC-MS as described in Example 2A. […]"}, "[5]": {"molecular_target": "CYP2E1 and Epoxide Hydrolase (EH) (Homo sapiens, UniProt P05181)", "sequence (P05181 whole entry)": "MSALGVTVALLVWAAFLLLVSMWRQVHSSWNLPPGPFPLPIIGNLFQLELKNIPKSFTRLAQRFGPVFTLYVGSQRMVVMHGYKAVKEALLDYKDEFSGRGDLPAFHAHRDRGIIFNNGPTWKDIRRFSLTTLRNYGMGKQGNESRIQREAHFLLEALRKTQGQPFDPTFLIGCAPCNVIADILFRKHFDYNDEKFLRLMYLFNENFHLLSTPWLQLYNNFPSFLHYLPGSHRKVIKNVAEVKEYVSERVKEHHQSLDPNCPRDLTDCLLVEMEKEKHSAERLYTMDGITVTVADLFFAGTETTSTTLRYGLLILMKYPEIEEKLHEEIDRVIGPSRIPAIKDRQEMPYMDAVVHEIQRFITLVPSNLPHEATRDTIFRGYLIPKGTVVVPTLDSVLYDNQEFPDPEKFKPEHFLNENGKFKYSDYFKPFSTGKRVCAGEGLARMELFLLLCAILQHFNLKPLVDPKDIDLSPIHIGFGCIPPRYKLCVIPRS", "protocol": "Styrene is incubated in a first incubation step with microsomal membranes of baculovirus-infected Sf9 insect cell membranes that contain CYP2E1 and POR. In a second incubation step, this sample is incubated with EH.\nIn the first step, 3 μl styrene (77 mM in acetonitrile), 425 μl potassium phosphate buffer (50 mM, pH 7.4), 16.5 μl MgCl2, 50 pmole of CYP2E1 containing cytochrome P450 reductase (purchased from BD Bioscience, Gentest, US) and water are mixed to give a total volume of 470 μl. 30 μl NADPH (50 mM in water) are added to the sample, to the control 30 μl water are added. Sample and control are incubated at 37° C. for 1 hour.\nIn the second step, 50 μl of 1 M Tris-Cl, pH 9 followed by 0.4 mg/ml protein (human microsomal epoxide hydrolase microsomes, 25,000 pmole styrene oxide hydrolase activity/(min×mg protein) BD Bioscience, Gentest, US) is added and incubation is continued for 30 min.\nAfter the second step, 100 μl acetonitrile is added to sample and control and they are placed on ice. This stops the enzymatic reaction. Compounds in the samples are extracted with MTBE.\nMetabolites, i.e. additional compounds present in the sample but not in the control, are identified by GC-MS."}, "[6]": {"molecular_target": "T4, equine liver ADH (EC 1.1.1.1) (Equus caballus, UniProt P00327)", "T4 construct": "purchased Sigma-Aldrich, Switzerland", "T4 sequence (P00327 2-375 limits assumed)": "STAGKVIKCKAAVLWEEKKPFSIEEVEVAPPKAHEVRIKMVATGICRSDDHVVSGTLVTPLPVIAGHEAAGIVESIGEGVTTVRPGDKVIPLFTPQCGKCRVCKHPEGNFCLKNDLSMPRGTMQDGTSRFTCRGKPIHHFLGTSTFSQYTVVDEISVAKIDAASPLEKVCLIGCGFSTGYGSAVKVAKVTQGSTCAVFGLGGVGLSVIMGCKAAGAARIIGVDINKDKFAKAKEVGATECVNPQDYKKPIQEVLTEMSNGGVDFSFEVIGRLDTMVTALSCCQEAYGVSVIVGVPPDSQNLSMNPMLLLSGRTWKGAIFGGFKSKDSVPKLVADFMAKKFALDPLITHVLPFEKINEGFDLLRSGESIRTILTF", "assay": "Incubation of octanol with alcohol dehydrogenase (ADH), metabolite by GC and GC-MS", "format": "in vitro ADME", "settings": "octanol 0.1 M, 50 mU ADH, 10 mM NAD+, pH 8.5, 30 min at 25° C.", "method": "Human alcohol dehydrogenase exists as a heterogeneous group of isozymes capable of oxidizing a wide variety of aliphatic and aromatic alcohols. Any isozyme of the human enzyme can be used. In this example, equine liver ADH (EC 1.1.1.1; Sigma-Aldrich, Switzerland) is used instead of the human enzyme. Octanol is incubated with ADH in a 1-ml reaction volume containing 50 mM potassium phosphate (pH 8.5) and 10 mM NAD+ (Fluka, Switzerland). Octanol is added at a concentration of 0.1 M and the metabolic reaction is initiated by addition of 50 mU of ADH and incubated for 30 min at 25° C. The tube is centrifuged to separate any debris and the supernatant extracted with MTBE for analysis by GC and GC-MS. […] The metabolite is identified by GC analysis and GC-MS as octanal."}, "[7]": {"molecular_target": "T5, rat olfactory receptor 17 (Rattus norvegicus, UniProt P23270)", "T5 construct": "expressed in transfected cells; host or cells: HEK293", "T5 sequence (P23270 1-327)": "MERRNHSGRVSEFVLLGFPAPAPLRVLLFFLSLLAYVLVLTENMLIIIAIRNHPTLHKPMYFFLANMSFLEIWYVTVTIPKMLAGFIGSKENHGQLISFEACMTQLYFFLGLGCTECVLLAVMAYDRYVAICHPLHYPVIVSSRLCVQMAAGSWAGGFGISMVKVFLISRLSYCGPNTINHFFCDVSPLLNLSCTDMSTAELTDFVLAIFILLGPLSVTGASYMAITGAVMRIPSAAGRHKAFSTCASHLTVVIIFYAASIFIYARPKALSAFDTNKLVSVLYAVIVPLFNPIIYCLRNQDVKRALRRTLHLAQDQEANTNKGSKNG", "assay": "Receptor screen using HEK293 cells expressing Galpha-15,16 and the rat olfactory receptor 17, intracellular calcium", "format": "cell-based", "settings": "octanol incubated with ADH (octanal present) versus control without enzyme", "method": "Octanol is incubated with alcohol dehydrogenase as described in example 10, controls without alcohol dehydrogenase are incubated accordingly. In the presence of the enzyme, the metabolite of octanol, which is octanal, is present as shown in example 10.\nThe rat olfactory receptor 17 together with the Galpha15,16 are expressed by co-transfection in HEK293 cells as described by Krautwurst et al. (1998), Cell 95:917-926. Transfected HEK293 cells are plated on coverslips, 24-well tissue culture plates, and microtiter plates. These coverslips and plates are incubated with Fura-2 as described in example 8. The microtiter plates are incubated as described by Krautwurst et al. (1998).\nThe supernatant is transferred to an empty container and diluted with 2×HEPES (4 mM Ca^2+). This dilution is used as a sample in the receptor screen as described in Example 8, using HEK293 cells that express Galpha-15,16 and the rat olfactory receptor 17.\nFluorescence recording is performed to monitor any increase in intracellular, cytoplasmic calcium levels."}, "human CYP2A13 [8]": {"molecular_target": "T3, human CYP2A13", "settings": "60 min, 0.3 mM, pH 7.4", "protocol": "as §1, §2, §3"}}, "data": [{"smiles": "CC1CCC(C(C)C)C(O)C1", "note": "(centres unmarked) [menthol]", "values": [{"measurement": "Receptor ligand character at hTRPM8", "setting": "hTRPM8", "result": "preferred hTRPM8 agonist"}, {"measurement": "Intracellular calcium levels in hTRPM8-expressing CHO-K1 cells", "setting": "hTRPM8", "result": "increase of intracellular calcium levels"}]}, {"smiles": "CC1CCC(C(C)C)C(OC(=O)C(C)O)C1", "note": "(centres unmarked) [menthyl-lactate]", "values": [{"measurement": "Formation of the enzymatic reaction product of p-nitrophenylacetate compared to negative control", "setting": "[1]", "result": "concentration-dependent decrease"}, {"measurement": "Metabolite identified by GC and GC-MS (additional peak)", "setting": "[2]; 10 mU CE, substrate 0.25 mM, 30 min at 25° C., no standard substrate", "result": "menthol"}, {"measurement": "Identification as substrate or modulator of human CE", "setting": "[2]; from decrease of standard product and metabolite found", "result": "substrate of human CE"}, {"measurement": "Receptor ligand character at hTRPM8", "setting": "hTRPM8", "result": "not the main receptor ligand"}, {"measurement": "Intracellular calcium levels in hTRPM8-expressing CHO-K1 cells", "setting": "hTRPM8", "result": "no comparable increase"}]}, {"smiles": "c1ccc(C2CO2)cc1", "note": "(centres unmarked) [styrene oxide]", "values": [{"measurement": "Metabolite found by GC-MS in the sample but not in the control", "setting": "[3]", "result": "diol"}]}, {"smiles": "CN(C)c1ccccc1", "note": "[N,N-dimethylaniline]", "values": [{"measurement": "Identification as substrate or modulator of CYP2A13", "setting": "human CYP2A13 [4]", "result": "substrate of CYP2A13"}]}, {"smiles": "C=Cc1ccccc1", "note": "[styrene]", "values": [{"measurement": "Identified metabolites by GC-MS (present in the sample, not in the control)", "setting": "[5]", "result": "styrene epoxide and the corresponding diol"}]}, {"smiles": "CCCCCCCCO", "note": "[octanol]", "values": [{"measurement": "Metabolite identified by GC analysis and GC-MS", "setting": "[6]", "result": "octanal"}, {"measurement": "Activation of the rat olfactory receptor 17 (increase in intracellular calcium levels)", "setting": "[7]", "result": "not able to activate the receptor"}]}, {"smiles": "COCC(=O)c1ccccc1", "note": "[2-methoxyacetophenone]", "values": [{"measurement": "Metabolite identified by GC and GC-MS (additional peak present in the sample, not in the control)", "setting": "human CYP2A13 [8]", "result": "2-hydroxyacetophenone"}]}, {"smiles": "CCCCCCCC=O", "note": "[octanal]", "values": [{"measurement": "Activation of the rat olfactory receptor 17 (increase in intracellular calcium levels)", "setting": "[7]", "result": "agonist"}]}]}
